Results on two compounds are retold here after US20120101099A1, “HISTONE DEACETYLASE INHIBITORS” (ANTHEM BIOSCIENCES PRIVATE LIMITED, priority 2009, published 2012).

SMILES strings stand for the structures.

The test system of series [1] is A549 human lung xenograft. Description: In vivo anti-cancer activity using a human tumor xenograft. Further details: species or system athymic nude mice (nu/nu). Particulars: for % TGI on Day 21: p.o, once daily. Here is the method: The study was carried out in athymic nude mice (nu/nu) of BALB-c background at age 6-8 weeks. The animals were maintained in Individually Ventilated cages in a protected and controlled environment. All animal handling and procedures were carried out in a laminar air flow hood, under anesthesia when necessary. The studies were conducted in compliance with protocols approved by Anthem Biosciences Institutional Animal Ethics Committee (IAEC).
Human cell lines derived from tumors of lung were selected for evaluation. The tumor cells cell lines were grown and expanded in RPMI 1640 (supplemented with 1.5 mM L-glutamine and 10% FBS) Subconfluent monolayers were harvested, pelleted and resuspended in RPMI 1640 medium prior to counting on a haemocytometer. Viable cells were counted using trypan blue exclusion and a cell suspension was made in cold media with a concentration of 5×10^6/ml.
[…] of the cell suspension containing 10^6 cells of greater than 90% viability was mixed with an equal volume of Matrigel (10 mg/ml) in PBS (pH7.4) and was kept at 4 deg C. Nude mice were anaesthetized and were injected subcutaneously in the flank region with 0.1 ml using a 25 gauge needle. Animals were monitored daily during the period between inoculation and palpable tumor growth. Tumor size was measured with a digital Vernier caliper and tumor-bearing mice were randomized into control and treatment groups (n=10) when sufficient tumor volume was attained (approx. 100 mm3). The following formula was used to calculate the tumor volume:
Tumor volume=(length×width2)/2.
[…] Tumor volume and was body weight was measured three times per week.
In general terms: Xenograft models place foreign cells or tissue in a host animal.

For the next series, the target named is HDAC1 (Homo sapiens, UniProt Q13547). Description: Isoform selectivity assay, recombinant HDAC isoforms.
A further series addresses HDAC3 (Homo sapiens, UniProt O15379). The description is as above.
The next series has as its target T1, HDAC2 (Homo sapiens, UniProt Q92769).
T1 construct: purchased Biomol, USA
Description: biochemical. Here is the method: Assay was performed in 96-well black microplate and total volume of the assay was 100 μL. Hela nuclear extract was diluted HDAC assay buffer (final concentration of 3.0 μg/mL). Enzyme mixture was made of 10 μL of diluted enzyme and 30 μL of HDAC buffer. 40 μl of enzyme mixture followed by 10 μL of test compound (final concentration from 0.01 to 10 μM) or vehicle (control) was added to each well. The plate was pre-incubated at 37° C. for 10 minutes. The HDAC reaction was started by adding 50 μl of HDAC substrate Boc-Lys (Ac)-AMC (Anaspec, Inc Fremont, Calif., USA). The plate was incubated at 37° C. for 45 minutes. The reaction was stopped by adding 50 μL of Trypsin stop solution and plate further incubated at 37° C. for 15 minutes. Measuring the fluorescence at excitation wavelength of 360 nm and emission wavelength of 460 nm monitored the release of AMC. Buffer alone and substrate alone served as blank.

Another series has as its target HDAC8 (Homo sapiens, UniProt Q9BY41). As to the kind of experiment: Isoform selectivity assay, recombinant HDAC isoforms.
In series [2] the test system is recombinant HDAC isoforms. Description: Isoform selectivity assay (overall statement). Particulars: HDAC1, HDAC2, HDAC3, HDAC6, HDAC8.
Description: (§1) Following the HDAC inhibition assay using Hela nuclear extract, isoform selectivity was tested using recombinant HDAC isoforms (Biomol, USA).
The target of another series is HDAC6 (Homo sapiens, UniProt Q9UBN7). Description: Isoform selectivity assay, recombinant HDAC isoforms.
Series [3] in a line: Oral bioavailability and pharmacokinetics studies. The format is in vivo, male Balb/c mice. The conditions noted are these: male Balb/c mouse. Here is the method: The studies were performed to determine the oral bioavailability and pharmacokinetics of test compounds in male Balb/c mice. Study was performed after obtaining the Institutional Animal Ethics Committee (IAEC) permission. Mice aged 5 to 6 weeks weighing around 25 to 30 g were used for this study. The animals were fasted overnight with free access to water. Animals were administered test compounds by oral route at a 50 mg/kg body weight (formulation: 0.5% methylcellulose in water and 0.1% tween 80. Dose volume 10 ml/kg b.w.) or intravenous route at a dose 10 mg/kg b.w. […] (formulation: 0.9% saline. Dose volume 10 ml/kg b.w.) Blood samples were collected at various time points during the next 24 hours post dose. The blood samples were centrifuged at 3000 g for 5 minutes at 4° C. and the corresponding plasma samples were collected in clean pre-labeled tubes. Then, each sample was subjected to a suitable extraction method and analysed by LC-MS/MS (API 3200 LC-MS/MS system). Data was analyzed using WinNonlin version 5.2 (Pharsight).

Sequence of HDAC8 (Q9BY41 whole entry, canonical isoform): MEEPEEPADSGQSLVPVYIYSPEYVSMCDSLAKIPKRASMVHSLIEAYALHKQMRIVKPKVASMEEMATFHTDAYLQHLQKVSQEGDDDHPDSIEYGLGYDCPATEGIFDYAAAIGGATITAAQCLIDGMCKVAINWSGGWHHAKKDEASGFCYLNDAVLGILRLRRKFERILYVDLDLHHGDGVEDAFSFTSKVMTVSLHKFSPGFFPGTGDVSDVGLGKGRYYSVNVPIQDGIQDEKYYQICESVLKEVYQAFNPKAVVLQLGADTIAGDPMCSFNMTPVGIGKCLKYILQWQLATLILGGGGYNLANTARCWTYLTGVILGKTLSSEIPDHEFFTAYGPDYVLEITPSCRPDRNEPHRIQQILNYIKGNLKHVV
Sequence of HDAC6 (Q9UBN7 whole entry, canonical isoform): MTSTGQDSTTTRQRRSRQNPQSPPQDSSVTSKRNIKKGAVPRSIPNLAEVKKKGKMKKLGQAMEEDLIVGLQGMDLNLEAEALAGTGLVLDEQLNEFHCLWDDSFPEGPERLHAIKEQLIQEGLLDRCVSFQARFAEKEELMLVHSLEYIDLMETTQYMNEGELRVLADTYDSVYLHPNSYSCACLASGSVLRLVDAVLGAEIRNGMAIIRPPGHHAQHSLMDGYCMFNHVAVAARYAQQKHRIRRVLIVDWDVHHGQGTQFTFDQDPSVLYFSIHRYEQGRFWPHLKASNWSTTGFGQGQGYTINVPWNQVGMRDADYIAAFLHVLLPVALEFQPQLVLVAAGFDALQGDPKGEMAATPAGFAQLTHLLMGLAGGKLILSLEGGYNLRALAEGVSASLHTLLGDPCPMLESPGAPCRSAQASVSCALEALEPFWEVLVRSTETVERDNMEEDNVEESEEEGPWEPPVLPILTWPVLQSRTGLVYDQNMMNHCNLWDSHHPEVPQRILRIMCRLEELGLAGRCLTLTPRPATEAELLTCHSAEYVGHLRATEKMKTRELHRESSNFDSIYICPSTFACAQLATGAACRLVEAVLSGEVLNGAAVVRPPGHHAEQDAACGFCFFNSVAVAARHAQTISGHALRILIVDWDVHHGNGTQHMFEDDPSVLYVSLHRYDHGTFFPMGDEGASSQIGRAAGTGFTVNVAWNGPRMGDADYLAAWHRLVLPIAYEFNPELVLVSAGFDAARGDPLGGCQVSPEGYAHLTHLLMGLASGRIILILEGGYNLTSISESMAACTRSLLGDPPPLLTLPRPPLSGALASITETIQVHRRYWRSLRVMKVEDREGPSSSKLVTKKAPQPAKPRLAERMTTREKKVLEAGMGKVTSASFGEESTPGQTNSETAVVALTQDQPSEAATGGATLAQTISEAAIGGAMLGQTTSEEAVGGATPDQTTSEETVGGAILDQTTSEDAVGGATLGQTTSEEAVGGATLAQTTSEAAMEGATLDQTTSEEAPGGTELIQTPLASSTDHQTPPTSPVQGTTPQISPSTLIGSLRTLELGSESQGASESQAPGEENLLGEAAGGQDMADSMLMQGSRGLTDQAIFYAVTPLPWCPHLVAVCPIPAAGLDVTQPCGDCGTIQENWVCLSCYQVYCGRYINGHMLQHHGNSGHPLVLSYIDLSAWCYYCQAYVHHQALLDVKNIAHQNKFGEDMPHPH
Sequence of HDAC1 (Q13547 whole entry, canonical isoform): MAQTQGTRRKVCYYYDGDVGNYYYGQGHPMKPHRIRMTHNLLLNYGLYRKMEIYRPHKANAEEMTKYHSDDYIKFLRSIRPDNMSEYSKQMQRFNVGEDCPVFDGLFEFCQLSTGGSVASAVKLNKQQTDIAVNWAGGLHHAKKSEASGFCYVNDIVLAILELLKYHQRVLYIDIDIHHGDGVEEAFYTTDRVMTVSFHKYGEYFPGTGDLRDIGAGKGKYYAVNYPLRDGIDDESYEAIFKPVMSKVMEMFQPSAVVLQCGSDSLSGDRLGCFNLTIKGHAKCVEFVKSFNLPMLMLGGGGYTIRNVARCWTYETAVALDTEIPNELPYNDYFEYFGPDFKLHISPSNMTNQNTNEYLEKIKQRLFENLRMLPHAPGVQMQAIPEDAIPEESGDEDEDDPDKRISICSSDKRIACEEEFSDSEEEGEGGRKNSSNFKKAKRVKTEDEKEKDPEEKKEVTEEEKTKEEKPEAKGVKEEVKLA
T1 sequence (Q92769 whole entry): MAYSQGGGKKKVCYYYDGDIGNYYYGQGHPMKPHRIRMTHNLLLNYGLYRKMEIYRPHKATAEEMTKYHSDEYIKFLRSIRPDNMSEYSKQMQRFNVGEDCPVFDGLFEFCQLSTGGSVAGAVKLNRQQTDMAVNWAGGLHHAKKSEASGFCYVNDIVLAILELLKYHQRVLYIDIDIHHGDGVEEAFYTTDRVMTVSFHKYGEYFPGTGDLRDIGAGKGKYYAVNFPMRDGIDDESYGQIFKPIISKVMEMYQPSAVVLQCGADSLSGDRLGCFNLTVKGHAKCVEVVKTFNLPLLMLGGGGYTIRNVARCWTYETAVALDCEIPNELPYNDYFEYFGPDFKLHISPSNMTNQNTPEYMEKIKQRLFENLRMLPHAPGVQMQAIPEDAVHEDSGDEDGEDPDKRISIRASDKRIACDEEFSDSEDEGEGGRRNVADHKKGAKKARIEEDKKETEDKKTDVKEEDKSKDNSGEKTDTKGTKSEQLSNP
Sequence of HDAC3 (O15379 whole entry): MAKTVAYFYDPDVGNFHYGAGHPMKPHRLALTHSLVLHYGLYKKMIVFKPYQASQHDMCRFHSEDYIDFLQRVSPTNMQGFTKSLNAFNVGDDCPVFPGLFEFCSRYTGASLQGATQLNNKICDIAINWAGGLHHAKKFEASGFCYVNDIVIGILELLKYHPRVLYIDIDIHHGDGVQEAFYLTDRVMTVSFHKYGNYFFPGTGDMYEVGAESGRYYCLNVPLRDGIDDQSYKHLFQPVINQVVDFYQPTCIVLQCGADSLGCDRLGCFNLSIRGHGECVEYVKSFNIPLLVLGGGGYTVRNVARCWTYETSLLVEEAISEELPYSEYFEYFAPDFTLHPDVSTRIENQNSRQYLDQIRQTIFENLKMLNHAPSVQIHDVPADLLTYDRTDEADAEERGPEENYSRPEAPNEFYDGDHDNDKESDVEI
Description for HDAC1: as §1
Description for HDAC3: as §1
Description for HDAC6: as §1
Description for HDAC8: as §1

In general, IC50 refers to the midpoint of a concentration-inhibition curve. As to `O=C(NO)c1ccc(Cn2cc(-c3ccc(CN4CCCC4)cc3)nn2)cc1` [Example 8, N-Hydroxy-4-[4-(4-pyrrolidin-1-ylmethyl-phenyl)-[1,2,3]triazol-1-ylmethyl]-benzamide], the “% TGI on Day 21” value was determined as 27.3% in series [1] (12.5 mg/kg, listed as Ex. 8); 27% in series [1] (12.5 mg/kg, listed as Ex.8); 36.9% in series [1] (25 mg/kg, listed as Ex. 8); 32% in series [1] (25 mg/kg, listed as Ex.8); 52.1% in series [1] (50 mg/kg, listed as Ex. 8); 57% in series [1] (50 mg/kg, listed as Ex.8). Besides, the “body weight compared to the vehicle control group” value in series [1] (21 days oral treatment) is listed as “no significant reduction in body weight”. Further, the IC50 is 0.025 µM at HDAC1; 0.002 µM at HDAC3; 0.029 µM on HDAC2; 0.282 µM at HDAC8; 0.011 µM on HDAC6. The “isoform selectivity” value in series [2] is given as “pan-HDAC inhibitor”.
In general, bioavailability refers to the share of a dose that reaches the circulation, judged against a reference dose that is usually intravenous. Higher therefore signals much systemic uptake. In general, Cmax refers to the peak of the concentration-time curve. By Tmax is commonly meant the time at which the peak concentration occurs. Consider `O=C(CCCCCCC(=O)Nc1ccccc1)NO` [SAHA, Suberoylanilide Hydroxamic Acid, reference compound], for which the “% TGI on Day 21” value in series [1] (150 mg/kg) came out at 53.6%. Also, in series [3] (oral 50 mg/kg), the “AUC last 0 to 24 h” value came to 347 ng·h/mL and the T1/2 was 48 min. Also, the bioavailability in series [3] (plasma, oral 50 mg/kg vs intravenous) is 11 ± 3%. For the same compound, in series [3] (plasma, oral 50 mg/kg), the maximum concentration (Cmax) stood at 580 ng/mL and the Tmax turned out to be 4.8 min.
